Results from ChEMBL document CHEMBL1131836, “Potent, easily synthesized huperzine A-tacrine hybrid acetylcholinesterase inhibitors” (Bioorg Med Chem Lett, 1999).

Experiments:
[1] = molecular target: Butyrylcholinesterase (Rattus norvegicus, UniProt Q9JKC1)
Description: Inhibitory potency against rat serum Butyrylcholinesterase with BW284c51 as AChE inhibitor

[2] = molecular target: T1, Acetylcholinesterase (Rattus norvegicus, UniProt P37136)
T1 sequence (P37136 whole entry): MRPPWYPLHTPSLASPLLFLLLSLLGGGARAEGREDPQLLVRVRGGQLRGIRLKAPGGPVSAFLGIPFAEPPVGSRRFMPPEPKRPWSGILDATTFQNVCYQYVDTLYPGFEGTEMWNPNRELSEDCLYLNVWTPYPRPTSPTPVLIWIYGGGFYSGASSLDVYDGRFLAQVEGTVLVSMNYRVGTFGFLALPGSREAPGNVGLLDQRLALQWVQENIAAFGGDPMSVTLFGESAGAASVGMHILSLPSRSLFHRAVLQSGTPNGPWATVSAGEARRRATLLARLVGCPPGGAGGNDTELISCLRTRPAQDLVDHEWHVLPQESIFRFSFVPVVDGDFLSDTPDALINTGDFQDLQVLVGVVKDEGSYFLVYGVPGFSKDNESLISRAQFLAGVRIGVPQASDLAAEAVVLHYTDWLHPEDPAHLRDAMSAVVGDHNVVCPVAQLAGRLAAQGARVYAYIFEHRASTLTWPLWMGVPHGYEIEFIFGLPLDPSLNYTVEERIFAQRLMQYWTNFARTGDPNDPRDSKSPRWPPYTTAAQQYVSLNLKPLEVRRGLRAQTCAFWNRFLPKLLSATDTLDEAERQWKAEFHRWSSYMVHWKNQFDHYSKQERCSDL
Description: Inhibitory potency against acetylcholinesterase (AChE) of rat cortex homogenate with ethopropazine as BChE inhibitor

Chain of Butyrylcholinesterase (Q9JKC1 whole entry): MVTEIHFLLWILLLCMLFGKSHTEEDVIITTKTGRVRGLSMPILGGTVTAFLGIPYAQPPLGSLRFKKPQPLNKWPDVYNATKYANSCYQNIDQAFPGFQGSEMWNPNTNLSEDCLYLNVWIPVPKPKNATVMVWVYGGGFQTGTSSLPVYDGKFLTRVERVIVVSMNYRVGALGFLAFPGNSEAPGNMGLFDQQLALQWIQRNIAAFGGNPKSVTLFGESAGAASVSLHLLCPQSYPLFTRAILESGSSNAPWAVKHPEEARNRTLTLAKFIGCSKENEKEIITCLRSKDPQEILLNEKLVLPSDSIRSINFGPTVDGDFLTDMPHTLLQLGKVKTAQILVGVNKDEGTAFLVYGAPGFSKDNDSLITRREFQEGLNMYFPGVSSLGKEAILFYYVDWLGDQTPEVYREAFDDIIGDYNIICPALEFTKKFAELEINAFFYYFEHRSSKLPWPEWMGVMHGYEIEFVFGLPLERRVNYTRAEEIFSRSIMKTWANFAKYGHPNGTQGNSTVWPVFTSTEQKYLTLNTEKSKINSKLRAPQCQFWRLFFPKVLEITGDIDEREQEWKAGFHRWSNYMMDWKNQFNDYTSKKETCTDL

Row | SMILES | IC50 [1] | IC50 [2]
1 | Oc1ccc2c(n1)CCCC2NCCCCCCNc1c2c(nc3ccccc13)CCCC2 (racemic) | 223 nM | 37.1 nM
2 | Oc1ccc2c(n1)CCCC2NCCCCNc1c2c(nc3ccccc13)CCCC2 (racemic) | 228 nM | 42.6 nM
3 | Oc1ccc2c(n1)CCCC2NCCCCCCCNc1c2c(nc3ccccc13)CCCC2 (racemic) | 233 nM | 53.1 nM
4 | Oc1ccc2c(n1)CCCC2NCCCCCNc1c2c(nc3ccccc13)CCCC2 (racemic) | 220 nM | 122 nM
5 | Oc1ccc2c(n1)CCCC2NCCCCCCCCCNc1c2c(nc3ccccc13)CCCC2 (racemic) | 150 nM | 36.3 nM
6 | O=c1ccc2c([nH]1)CCCC2NCCCCCCCCCCNc1c2c(nc3ccccc13)CCCC2 (racemic) | 81.5 nM | –
7 | O=c1ccc2c([nH]1)CCCC2NCCCCCCCCCCCCNc1c2c(nc3ccccc13)CCCC2 (racemic) | 434 nM | 112 nM
8 | O=c1ccc2c([nH]1)CCCC2NCCCCCCCCNc1c2c(nc3ccccc13)CCCC2 (racemic) | 166 nM | 26.2 nM
